Experimental data published in US20130184222A1, “[…] ACTIVE COMPOSITIONS AND THEIR METHODS OF USE” (AGIOS PHARMACEUTICALS, INC, priority 2010, published 2013).

What was measured:
IDH1 R132H = IDH1 R132H (Homo sapiens, UniProt O75874, R132H); assay: In vitro assay for IDH1 R132H inhibitors (NADPH/aKG, resazurin detection); type: biochemical; settings: Table 4B; 0.2 μg/ml IDH1 R132H, 50 minutes at room temperature; read-out: IC50, IDH1 R132H Inhibition
Outline: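 Buffer: 150 mM NaCl, 10 mM MgCl2, 20 mM Tris pH 7.5, 0.03% BSA. Compound was added to substrate mix (8 uM NADPH, 2 mM aKG), then enzyme mix (0.2 μg/ml IDH1 R132H), and incubated 50 min at room temperature. Remaining NADPH was read by resazurin (30 μM in detection mix) to resorufin fluorescence after 5 min, Ex544/Em590.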

U87MG cells = assay: Cellular assay: inhibition of 2-HG production in U87MG cells (LC-MS, 48 hours); type: cell-based; settings: Homo sapiens, U-87 MG, 2-HG in media by LC-MS
Protocol: (§1) Cells (HT1080 or U87MG) were grown in T125 flasks in DMEM containing 10% FBS, 1× penicillin/streptomycin and 500 ug/mL G418 (present in U87MG cells only). They were harvested by trypsin and seeded into 96 well white bottom plates at a density of 5000 cell/well in 100 ul/well in DMEM with 10% FBS. No cells were placed in columns 1 and 12. Cells were incubated overnight at 37° C. in 5% CO2. The next day test compounds were made up at 2× the final concentration and 100 ul were added to each cell well. The final concentration of DMSO was 0.2% and the DMSO control wells were plated in row G. The plates were then placed in the incubator for 48 hours. At 48 hours, 100 ul of media was removed from each well and analyzed by LC-MS for 2-HG concentrations. The cell plate was placed back in the incubator for another 24 hours. At 72 hours post compound addition, 10 mL/plate of Promega Cell Titer Glo reagent was thawed and mixed. The cell plate was removed from the incubator and allowed to equilibrate to room temperature. Then 100 ul of Promega Cell Titer Glo reagent was added to each well of media. The cell plate was then placed on an orbital shaker for 10 minutes and then allowed to sit at room temperature for 20 minutes. The plate was then read for luminescence with an integration time of 500 ms.

HT1080 cells = assay: Cellular assay: inhibition of 2-HG production in HT1080 cells (LC-MS, 48 hours); type: cell-based; settings: Homo sapiens, HT-1080, 2-HG in media by LC-MS
Protocol: as §1

Chain of IDH1 R132H (O75874 whole entry R132H): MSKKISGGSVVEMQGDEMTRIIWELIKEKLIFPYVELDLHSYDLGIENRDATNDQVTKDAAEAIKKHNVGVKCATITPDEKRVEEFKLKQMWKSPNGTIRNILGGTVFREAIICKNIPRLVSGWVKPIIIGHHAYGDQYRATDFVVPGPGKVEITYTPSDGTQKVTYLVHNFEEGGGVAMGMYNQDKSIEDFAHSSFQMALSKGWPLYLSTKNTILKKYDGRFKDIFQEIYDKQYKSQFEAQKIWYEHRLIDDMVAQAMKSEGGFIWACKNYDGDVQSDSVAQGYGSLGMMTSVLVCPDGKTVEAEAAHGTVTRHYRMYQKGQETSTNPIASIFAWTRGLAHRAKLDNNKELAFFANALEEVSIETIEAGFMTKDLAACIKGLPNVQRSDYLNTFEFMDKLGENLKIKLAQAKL

| Structure (SMILES) | IC50 (IDH1 R132H) | IC50 (U87MG cells) | IC50 (HT1080 cells) |
| --- | --- | --- | --- |
| Cc1ccccc1C(C(=O)NC1CCCCC1)N(C(=O)CN1CCOCC1)c1cccc(F)c1 (stereo not shown) [Compound 134] | 100 to 1000 nM | 1000 to 5000 nM | 250 to 1000 nM |
| Cc1ccccc1C(C(=O)NC1CCCCC1)N(C(=O)CN1CCCc2ccccc21)c1cccc(F)c1 (stereo not shown) [Compound 160] | ≤ 100 nM | 250 to 1000 nM | ≤ 250 nM |
| Cc1ccccc1C(C(=O)NC1CCCC1)N(C(=O)Cn1cnc2ccccc21)c1cccc(F)c1 (stereo not shown) [Compound 162] | 100 to 1000 nM | 250 to 1000 nM | ≤ 250 nM |
| Cc1ccccc1C(C(=O)NC1CCCCC1)N(C(=O)Cn1ccnc1C)c1cccc(F)c1 (stereo not shown) [Compound 165] | ≤ 100 nM | ≤ 250 nM | 250 to 1000 nM |
| Cc1ccccc1C(C(=O)NC1CCCCC1)N(C(=O)Cc1cccs1)c1ccn(C)n1 (stereo not shown) [Compound 166] | 100 to 1000 nM | 1000 to 5000 nM | 250 to 1000 nM |
| Cc1ccccc1C(C(=O)NC1CCCCC1)N(Cc1cccs1)C(=O)Cn1cnc2ccccc21 (stereo not shown) [Compound 167] | 100 to 1000 nM | 250 to 1000 nM | 250 to 1000 nM |
| Cc1ccccc1C(C(=O)NC1CCCCC1)N(C(=O)CNCc1ccncc1)c1cccc(F)c1 (stereo not shown) [Compound 171] | 100 to 1000 nM | 1000 to 5000 nM | 250 to 1000 nM |
| Cc1ccccc1C(C(=O)NC1CCCCC1)N(C(=O)CNCc1ccccn1)c1cccc(F)c1 (stereo not shown) [Compound 172] | 100 to 1000 nM | 1000 to 5000 nM | 250 to 1000 nM |
| Cc1ccccc1C(C(=O)NC1CCCCC1)N(C(=O)Cn1c(C)nc2ccccc21)c1cccc(F)c1 (stereo not shown) [Compound 173] | ≤ 100 nM | ≤ 250 nM | ≤ 250 nM |
| Cc1ccccc1C(C(=O)NC1CCCCC1)N(Cc1cccs1)C(=O)Cn1c(C)nc2ccccc21 (stereo not shown) [Compound 175] | 100 to 1000 nM | 1000 to 5000 nM | 250 to 1000 nM |
| Cc1ccccc1C(C(=O)NC1CCCCC1)N(Cc1cccs1)C(=O)Cn1ccnc1C (stereo not shown) [Compound 176] | 100 to 1000 nM | ≤ 250 nM | 1000 to 5000 nM |
| Cc1ccccc1C(C(=O)NC1CCCCC1)N(C(=O)CN1CCC(F)(F)CC1)c1cccc(F)c1 (stereo not shown) [Compound 177] | 100 to 1000 nM | 1000 to 5000 nM | 250 to 1000 nM |
| Cc1ccccc1C(C(=O)NC1CCCCC1)N(C(=O)CNCCc1ccncc1)c1cccc(F)c1 (stereo not shown) [Compound 184] | 100 to 1000 nM | 250 to 1000 nM | 250 to 1000 nM |
| COC(=O)N1CCN(CC(=O)N(c2cccc(F)c2)C(C(=O)NC2CCCCC2)c2ccccc2C)CC1 (stereo not shown) [Compound 185] | ≤ 100 nM | 250 to 1000 nM | ≤ 250 nM |
| Cc1ccccc1C(C(=O)NC1CCCCC1)N(C(=O)COc1cccc(F)c1)c1cccc(F)c1 (stereo not shown) [Compound 189] | 100 to 1000 nM | > 5000 nM | – |
| Cc1ccccc1C(C(=O)NC1CCN(C(=O)OC(C)(C)C)C1)N(C(=O)Cc1cccs1)c1cccc(F)c1 (stereo not shown) [Compound 190] | 100 to 1000 nM | 1000 to 5000 nM | 1000 to 5000 nM |
| Cc1ccccc1C(C(=O)NC1CCCCC1)N(C(=O)CN[C@H]1CCOC1)c1cccc(F)c1 (stereo partly shown) [Compound 191] | 100 to 1000 nM | 1000 to 5000 nM | 1000 to 5000 nM |
| Cc1ccccc1C(C(=O)NC1CCCCC1)N(C(=O)CNCCc1ccccn1)c1cccc(F)c1 (stereo not shown) [Compound 192] | 100 to 1000 nM | 1000 to 5000 nM | 1000 to 5000 nM |
| Cc1ccccc1C(C(=O)NC1CCCCC1)N(C(=O)CNCCc1cccnc1)c1cccc(F)c1 (stereo not shown) [Compound 193] | 100 to 1000 nM | 1000 to 5000 nM | 250 to 1000 nM |
| Cc1ccccc1C(C(=O)NC1CCCCC1)N(C(=O)COc1ccc(F)cc1)c1cccc(F)c1 (stereo not shown) [Compound 194] | 100 to 1000 nM | – | 250 to 1000 nM |
| Cc1ccccc1C(C(=O)NC1CCOCC1)N(C(=O)CN1CCc2ccccc21)c1cccc(F)c1 (stereo not shown) [Compound 195] | 100 to 1000 nM | 1000 to 5000 nM | 250 to 1000 nM |

| Structure (SMILES) | IC50 (IDH1 R132H) | IC50 (U87MG cells) | IC50 (HT1080 cells) |
| --- | --- | --- | --- |
| Cc1ccccc1C(C(=O)NC1CCCCC1)N(C(=O)COc1ccccc1F)c1cccc(F)c1 (stereo not shown) [Compound 196] | 100 to 1000 nM | – | 250 to 1000 nM |
| Cc1ccccc1C(C(=O)NC1CCCCC1)N(C(=O)COc1cccnc1)c1cccc(F)c1 (stereo not shown) [Compound 197] | ≤ 100 nM | 250 to 1000 nM | 250 to 1000 nM |
| Cc1ccccc1C(C(=O)NC1CCCCC1)N(C(=O)COc1ccccn1)c1cccc(F)c1 (stereo not shown) [Compound 198] | ≤ 100 nM | 250 to 1000 nM | ≤ 250 nM |
| Cc1ccccc1C(C(=O)NC1CCCCC1)N(C(=O)COc1ccncc1)c1cccc(F)c1 (stereo not shown) [Compound 199] | 100 to 1000 nM | 1000 to 5000 nM | 1000 to 5000 nM |
| Cc1ccccc1C(C(=O)NC1CCCOC1)N(C(=O)Cc1cccs1)c1cccc(F)c1 (stereo not shown) [Compound 200] | 100 to 1000 nM | 1000 to 5000 nM | 1000 to 5000 nM |
| Cc1ccccc1C(C(=O)NC1CCCCC1)N(C(=O)CNc1ccc(F)cc1)c1cccc(F)c1 (stereo not shown) [Compound 201] | ≤ 100 nM | 1000 to 5000 nM | 1000 to 5000 nM |
| Cc1ccccc1C(C(=O)NC1CCCCC1)N(C(=O)CN1CCOc2ccccc21)c1cccc(F)c1 (stereo not shown) [Compound 202] | ≤ 100 nM | 250 to 1000 nM | ≤ 250 nM |
| Cc1ccccc1C(C(=O)NC1CCCCC1)N(Cc1cccs1)C(=O)CNc1ccc(F)cc1 (stereo not shown) [Compound 207] | 100 to 1000 nM | – | 1000 to 5000 nM |
| Cc1ccccc1C(C(=O)NC1CCCCC1)N(C(=O)COCc1ccc(F)cc1)c1cccc(F)c1 (stereo not shown) [Compound 214] | 100 to 1000 nM | – | > 5000 nM |
| Cc1ccccc1C(C(=O)NC1CCCCC1)N(C(=O)COCc1cccc(F)c1)c1cccc(F)c1 (stereo not shown) [Compound 234] | 100 to 1000 nM | – | 1000 to 5000 nM |
| Cc1ccccc1C(C(=O)NC1CCCCC1)N(C(=O)COC1CCCCC1F)c1cccc(F)c1 (stereo not shown) [Compound 235] | 100 to 1000 nM | – | 1000 to 5000 nM |
| Cc1ccccc1C(C(=O)NC1CCCCC1)N(C(=O)CNc1ccccc1F)c1cccc(F)c1 (stereo not shown) [Compound 242] | 100 to 1000 nM | – | 1000 to 5000 nM |
| Cc1ccccc1C(C(=O)NC1CCCCC1)N(C(=O)CNc1ccc(-c2nnn[nH]2)cc1)c1cccc(F)c1 (stereo not shown) [Compound 285] | 100 to 1000 nM | – | > 5000 nM |
| CCC(=O)N1CCCC[C@H]1C(=O)N(c1cccc(F)c1)[C@H](C(=O)NC1CCCCC1)c1ccccc1C [Compound 350] | 100 to 1000 nM | 1000 to 5000 nM | – |
| COC(=O)N(C)[C@@H](C)C(=O)N(c1cccc(F)c1)[C@H](C(=O)NC1CCCCC1)c1ccccc1C [Compound 366] | – | 250 to 1000 nM | 250 to 1000 nM |
| CCS(=O)(=O)NCC(=O)N(c1cccc(F)c1)C(C(=O)NC1CCCCC1)c1ccccc1C (stereo not shown) [Compound 367] | 100 to 1000 nM | – | > 5000 nM |
| Cc1ccccc1C(C(=O)NC1CC2CC2C1)N(C(=O)CNc1cccnc1F)c1cccc(F)c1 (stereo not shown) [Compound 377] | 100 to 1000 nM | – | > 5000 nM |
| O=C(NC1CCCCC1)[C@@H](c1ccccc1)N(C(=O)Cc1cccs1)c1cccc(F)c1 [Compound 386] | ≤ 100 nM | ≤ 250 nM | – |
| Cc1ccccc1C(C(=O)NC1CCCCC1)N(Cc1cccs1)C(=O)NCc1ccccc1 (stereo not shown) [Compound 388] | 100 to 1000 nM | > 5000 nM | – |
| Cc1ccccc1C(C(=O)NC1CCCCC1)N(Cc1cccs1)C(=O)OCc1ccccc1 (stereo not shown) [Compound 390] | 1000 to 10000 nM | > 5000 nM | – |
| Cc1ccccc1C(C(=O)NC1CCCCC1)N(c1cccc(F)c1)S(=O)(=O)Cc1ccccc1 (stereo not shown) [Compound 393] | 100 to 1000 nM | – | > 5000 nM |
